Assay: in vitro
Conditions: human, hela cells, % viability

SMILES	viability at 28.5 h, 10 µM [%]
Cc1cc2c(cc1S(=O)(=O)NCCc1ccccc1)NC(=O)CO2 [CBK270196]	102
c1ccc(-c2cc(CC3(NCc4cc5ccccc5o4)COC3)no2)nc1 [CBK289239]	93.4
CC1(C)OC(=O)C(=CNC(CCC(=O)O)C(=O)O)C(=O)O1 (centres unmarked) [CBK263510]	97.3
COc1ccc(N2C(=S)N(Cc3cccs3)[C@H]3[C@@H](O)[C@H](O)C[C@@H](C(N)=O)[C@H]32)cc1 [CBK288929]	93
Fc1ccc(CSc2nnc(-c3ccccn3)[nH]2)cc1 [CBK270074]	85.8
CN1CCc2c1nc1ccccc1c2NC(=O)CN1CCCCCC1 [CBK278298G]	90.6
Cc1cc2c(o1)c1cnn(CC(=O)N3CCC(C)CC3)c(=O)c1n2C [CBK284236]	83.9
CN(C)CCNC(=O)NC(c1ccccc1)c1ccccc1 [CBK263505C]	104
O=C(Nc1ccc(F)c(F)c1)N[C@H]1CC[C@@]2(c3cccc(Br)c3)CCN(Cc3ccccc3)[C@H]2C1 [CBK047515]	107
O=C(CSc1nnc(-c2ccncc2)s1)NNC(=O)c1cccs1 [CBK269600]	82.3
COc1ccc(C(=O)/C=C/c2cccs2)c(OC(=O)c2ccc([N+](=O)[O-])cc2)c1 [CBK264926]	118
COC(=O)c1ccc(NC(=O)COn2nnc3ccc([N+](=O)[O-])cc32)cc1 [CBK267106]	94.3
CCc1[nH]ncc1C(=O)N1CCN(c2nccc(OC)n2)CC1 [CBK304915]	86.4
Cc1c(N2C(=O)/C(=C3\C(=O)Nc4ccc([N+](=O)[O-])cc43)SC2=S)c(=O)n(-c2ccccc2)n1C [CBK263071]	115
O=C(c1cncnc1)N1CCCc2ccccc21 [CBK200259]	91.4
FC(F)(F)c1ccc(SCc2ccc(Cl)c(Cl)c2)nc1 [CBK103713]	95.3
COc1ccc(-c2cc3ccc(OC(C)C(=O)O)cc3oc2=O)cc1 (centres unmarked) [CBK267947]	101
OC1CCN(CC(O)Cn2c3ccccc3c3ccccc32)CC1 (centres unmarked) [CBK305784]	100
COc1ccc(S(=O)(=O)NC(C)C(=O)NCc2ccncc2)cc1C (centres unmarked) [CBK269347]	101
O=C(NC1Cc2ccccc2C1)c1cccc(-c2ccc(CC3CCCNC3=O)cc2)c1 (centres unmarked) [CBK285579]	94.9
Cc1cc(C)c(NC(=O)CSCc2cc(O)[nH]n2)c(Cl)c1 [CBK268302]	93.8

SMILES	viability at 28.5 h, 10 µM [%]
N#Cc1ccc(Cn2cc(C(=O)C(N)=O)c3ccccc32)cc1 [CBK270062]	84.2
N#CC1=C(N)Oc2[nH]nc(-c3cccs3)c2C1c1ccco1 (centres unmarked) [CBK266088]	99
Cc1cc(C)c2nc(-c3cccnc3)cc(C(=O)N3CCN(S(=O)(=O)c4ccc(F)cc4)CC3)c2c1 [CBK267726]	95
Cc1[nH]c(=O)[nH]c(=O)c1CC(=O)NCC1CCN(c2ccccc2F)C1 (centres unmarked) [CBK304325]	99.7
O=C(c1cc[nH]c1)N1CCCC2(CCN(C(=O)c3ccoc3)C2)C1 (centres unmarked) [CBK131629]	105
CC(=O)Nc1ccc(-c2ccc(C(=O)NCC3COc4ccccc4O3)cn2)cc1 (centres unmarked) [CBK158832]	99.3
CC1=NNC(=O)C1Cc1c(Cl)cccc1Cl (centres unmarked) [CBK067754]	109
CCOC(=O)c1c(NC(=O)C2C3CCC(C3=C(C)C)C2C(=O)O)sc2c1CCCCC2 (centres unmarked) [CBK265439]	106
Cc1n[nH]c(NNC(=O)COc2ccc(Cl)cc2)c1[N+](=O)[O-] [CBK261478]	98.2
COc1ccc(C)cc1Nc1nc(N)nc(-c2oc3ccccc3c2C)n1 [CBK269026]	107
O=c1[nH]c(=O)n(Cc2cccnc2)c2nc[nH]c12 [CBK291260]	111
CCOC(=O)C1(Cc2cc(-c3ccccc3)no2)CCNCC1 [CBK284924]	111
COc1cc([N+](=O)[O-])ccc1NC(=O)NCc1ccco1 [CBK266855]	101
COc1ccccc1-c1ncc(OCCN2CCOCC2)nc1N [CBK145072]	113
O=C(Cn1cnc2ccccc2c1=O)Oc1cccc(NC2=NS(=O)(=O)c3ccccc32)c1 [CBK264975]	83.6
Cc1cc(C)c2cc(CNC3CC3)c3nn(C)c(=O)n3c2c1 [CBK283186]	93.8
CCc1c(C)sc(NC(=O)C2CCC2)c1C(=O)NCc1cccnc1 [CBK307414]	115
Cn1ccc2ccc(C(=O)Nc3nccs3)cc21 [CBK287910]	106
COc1ncccc1CNc1ncnc2c1cnn2CCO [CBK305980]	116
Cc1nc2ccccc2nc1CSc1nnc(Cc2ccccc2)n1-c1ccccc1 [CBK268360]	104
COc1ccc(-c2nc3cc(NC(=O)C(c4ccccc4)c4ccccc4)ccc3o2)cc1 [CBK264980]	113

SMILES	viability at 28.5 h, 10 µM [%]
CCn1cc(NC(=S)Nc2sc3c(c2C(=O)OC)CCC(C)C3)c(C(N)=O)n1 (centres unmarked) [CBK267032]	105
COc1cc(C=O)ccc1OC(=O)c1cn(-c2ccccc2)nc1-c1cccnc1 [CBK264255]	89.6
Cc1ccc(Nc2nc(N3CCOCC3)nc(N3CCOCC3)n2)cc1 [CBK287732]	118
CCN1CC2(CCN(Cc3c(F)cccc3F)CC2)c2ccccc21 [CBK136986]	94
CN1CCC(=NNC(=O)c2ccc(CN(c3ccccc3)S(C)(=O)=O)cc2)CC1 [CBK262728]	97.8
CC1=[N+]([O-])C2(N)CCc3nonc3C2(O)C1 (centres unmarked) [CBK261513]	87.9
O=c1[nH]c2ncc(-c3ccncc3)nc2n1CC1CC1 [CBK064539]	90
Cc1ccc(C2(CNC(=O)CCc3ccncc3)CCOCC2)cc1 [CBK281574]	93.7
O=S(=O)(Nc1ccc2[nH]ncc2c1)c1ccc(Oc2ccccc2)cc1 [CBK062522]	82.9
COc1cc(CN2CCN(c3ccccn3)CC2)ccc1O [CBK261537]	118
COc1ccc(-c2cncc(C3CN(Cc4ccc(C)cc4OC)CCO3)n2)cc1 (centres unmarked) [CBK286100]	91.8
CS(=O)(=O)c1ccc(-c2ccc(COC3CCN(C(=O)CCCc4ccc(F)cc4)CC3)cn2)cc1 [CBK162229T]	91.6
CN(C)C[C@H]1CC[C@]2(CC1)CN(C(=O)C1CC1)Cc1ccccc1O2 [CBK284920]	101
COc1ccc(Cc2nc(C3CC3)n(CC(F)(F)F)n2)cc1 [CBK307686]	94.9
COC(=O)c1ccccc1NC(=O)CNS(=O)(=O)c1ccc(C)cc1 [CBK266000]	94.7
O=C(c1ccccc1F)N1C[C@H](c2ccsc2)[C@H]2CN(Cc3cccs3)CC[C@H]21 [CBK285657]	94.8
COc1cncc(-c2cc(Nc3cccc(OC)c3OC)ncn2)c1 [CBK090728]	97.8
c1ccc2[nH]c(CN3CCC[C@@H]3CN3CCCC3)nc2c1 [CBK149102]	85.9
CC(=O)NC(Cc1c[nH]c2ccccc12)C(=O)N(C)Cc1cnn(C)c1 (centres unmarked) [CBK305274]	84.3
NC(=O)C1CCN(C(=O)Cc2csc(COc3ccc(Cl)cc3)n2)CC1 [CBK304519]	81.9
